# Test results taken from patent publication US20250361214A1, “TRIAZINE LIPIDS, LIPID SYNTHESIS, AND METHODS FOR INHIBITING CANONICAL NFKB TRANSCRIPTIONAL ACTIVITY” (University of Kentucky Research Foundation, priority 2022, published 2025).
# Assays:
# murine macrophages = settings: incubation of murine macrophages; cited from earlier work
# cIAP = settings: cited from earlier work
# plasmid DNA = assay: Gel shift assay using plasmid DNA; type: binding; settings: 1:1 molar ratio cationic lipid and DOPE, agarose gel
# Method: Gel Shift Assays Using Plasmid DNA. Nanoparticles consisting of a 1:1 molar ratio of cationic lipid/DOPE were rehydrated in a 20 mM HEPES solution at pH 4. […] The gels were visualized and photographed using a Bio-Rad ChemiDoc XR system using the manufacturer's software.
# canonical NFKB = assay: THP-1-Blue NFKB reporter (SEAP) assay; type: cell-based, human; settings: THP-1-Blue cells stimulated with TNFα
compound,measurement,setting,value
CC[C@H]1OC(=O)[C@H](C)[C@@H](O[C@H]2C[C@@](C)(OC)[C@@H](O)[C@H](C)O2)[C@H](C)[C@@H](O[C@@H]2O[C@H](C)C[C@H](N(C)C)[C@H]2O)[C@](C)(O)C[C@@H](C)CN(C)[C@H](C)[C@@H](O)[C@]1(C)O [azithromycin],IKKβ expression,murine macrophages,increases the overall expression of IKβ kinase (IKKB)
CC[C@H](NC(=O)[C@H](C)NC)C(=O)N1C[C@@H](O)C[C@H]1Cc1c(-c2[nH]c3cc(F)ccc3c2C[C@@H]2C[C@H](O)CN2C(=O)[C@H](CC)NC(=O)[C@H](C)NC)[nH]c2cc(F)ccc12 [birinapant],IC50,cIAP,50 nM
"CCCCCCCC/C=C\CCCCCCCC(=O)OC[C@@H](COP(=O)(O)OCCN)OC(=O)CCCCCCC/C=C\CCCCCCCC (stereo in doubt) [DOPE, 1,2-dioleoyl-sn-glycero-3-phosphoethanolamine, reference compound]",N:P ratio at which nucleic acid is complexed / migration inhibited,plasmid DNA,unable to prevent migration
same,canonical NFKB inhibition,canonical NFKB,exhibited no activity
